# Reference: ChEMBL document CHEMBL6127032, “Progress of ATM inhibitors: Opportunities and challenges” (Eur J Med Chem, 2024)
# pIC50: −log10 of the molar value.
# Columns and labels:
# [1] = target: T1, Serine-protein kinase ATM (Homo sapiens, UniProt Q13315); assay: Inhibition of ATM (unknown origin)
# [2] = Inhibition of DNA-PK (unknown origin); parameters: species or system Homo sapiens
# [3] = Solubility of compound in PBS buffer; assay type: physicochemical
# [4] = test system: U2OS; assay: cells; conditions: Homo sapiens
# [5] = Oral bioavailability in human; assay type: ADME, organism-based; conditions: in vivo
# [6] = target: T1, Serine-protein kinase ATM; assay: Inhibition of ATM in human HeLa cells; assay type: cell-based
# [7] = Inhibition of PI3K (unknown origin); parameters: species or system Homo sapiens
# [8] = target: Serine/threonine-protein kinase ATR (Homo sapiens, UniProt Q13535); assay: Inhibition of ATR (unknown origin)
# [9] = Inhibition of PI4K (unknown origin); parameters: species or system Homo sapiens
# [10] = target: Serine/threonine-protein kinase mTOR (Homo sapiens, UniProt P42345); assay: Inhibition of mTOR (unknown origin)
# T1 sequence (Q13315 whole entry): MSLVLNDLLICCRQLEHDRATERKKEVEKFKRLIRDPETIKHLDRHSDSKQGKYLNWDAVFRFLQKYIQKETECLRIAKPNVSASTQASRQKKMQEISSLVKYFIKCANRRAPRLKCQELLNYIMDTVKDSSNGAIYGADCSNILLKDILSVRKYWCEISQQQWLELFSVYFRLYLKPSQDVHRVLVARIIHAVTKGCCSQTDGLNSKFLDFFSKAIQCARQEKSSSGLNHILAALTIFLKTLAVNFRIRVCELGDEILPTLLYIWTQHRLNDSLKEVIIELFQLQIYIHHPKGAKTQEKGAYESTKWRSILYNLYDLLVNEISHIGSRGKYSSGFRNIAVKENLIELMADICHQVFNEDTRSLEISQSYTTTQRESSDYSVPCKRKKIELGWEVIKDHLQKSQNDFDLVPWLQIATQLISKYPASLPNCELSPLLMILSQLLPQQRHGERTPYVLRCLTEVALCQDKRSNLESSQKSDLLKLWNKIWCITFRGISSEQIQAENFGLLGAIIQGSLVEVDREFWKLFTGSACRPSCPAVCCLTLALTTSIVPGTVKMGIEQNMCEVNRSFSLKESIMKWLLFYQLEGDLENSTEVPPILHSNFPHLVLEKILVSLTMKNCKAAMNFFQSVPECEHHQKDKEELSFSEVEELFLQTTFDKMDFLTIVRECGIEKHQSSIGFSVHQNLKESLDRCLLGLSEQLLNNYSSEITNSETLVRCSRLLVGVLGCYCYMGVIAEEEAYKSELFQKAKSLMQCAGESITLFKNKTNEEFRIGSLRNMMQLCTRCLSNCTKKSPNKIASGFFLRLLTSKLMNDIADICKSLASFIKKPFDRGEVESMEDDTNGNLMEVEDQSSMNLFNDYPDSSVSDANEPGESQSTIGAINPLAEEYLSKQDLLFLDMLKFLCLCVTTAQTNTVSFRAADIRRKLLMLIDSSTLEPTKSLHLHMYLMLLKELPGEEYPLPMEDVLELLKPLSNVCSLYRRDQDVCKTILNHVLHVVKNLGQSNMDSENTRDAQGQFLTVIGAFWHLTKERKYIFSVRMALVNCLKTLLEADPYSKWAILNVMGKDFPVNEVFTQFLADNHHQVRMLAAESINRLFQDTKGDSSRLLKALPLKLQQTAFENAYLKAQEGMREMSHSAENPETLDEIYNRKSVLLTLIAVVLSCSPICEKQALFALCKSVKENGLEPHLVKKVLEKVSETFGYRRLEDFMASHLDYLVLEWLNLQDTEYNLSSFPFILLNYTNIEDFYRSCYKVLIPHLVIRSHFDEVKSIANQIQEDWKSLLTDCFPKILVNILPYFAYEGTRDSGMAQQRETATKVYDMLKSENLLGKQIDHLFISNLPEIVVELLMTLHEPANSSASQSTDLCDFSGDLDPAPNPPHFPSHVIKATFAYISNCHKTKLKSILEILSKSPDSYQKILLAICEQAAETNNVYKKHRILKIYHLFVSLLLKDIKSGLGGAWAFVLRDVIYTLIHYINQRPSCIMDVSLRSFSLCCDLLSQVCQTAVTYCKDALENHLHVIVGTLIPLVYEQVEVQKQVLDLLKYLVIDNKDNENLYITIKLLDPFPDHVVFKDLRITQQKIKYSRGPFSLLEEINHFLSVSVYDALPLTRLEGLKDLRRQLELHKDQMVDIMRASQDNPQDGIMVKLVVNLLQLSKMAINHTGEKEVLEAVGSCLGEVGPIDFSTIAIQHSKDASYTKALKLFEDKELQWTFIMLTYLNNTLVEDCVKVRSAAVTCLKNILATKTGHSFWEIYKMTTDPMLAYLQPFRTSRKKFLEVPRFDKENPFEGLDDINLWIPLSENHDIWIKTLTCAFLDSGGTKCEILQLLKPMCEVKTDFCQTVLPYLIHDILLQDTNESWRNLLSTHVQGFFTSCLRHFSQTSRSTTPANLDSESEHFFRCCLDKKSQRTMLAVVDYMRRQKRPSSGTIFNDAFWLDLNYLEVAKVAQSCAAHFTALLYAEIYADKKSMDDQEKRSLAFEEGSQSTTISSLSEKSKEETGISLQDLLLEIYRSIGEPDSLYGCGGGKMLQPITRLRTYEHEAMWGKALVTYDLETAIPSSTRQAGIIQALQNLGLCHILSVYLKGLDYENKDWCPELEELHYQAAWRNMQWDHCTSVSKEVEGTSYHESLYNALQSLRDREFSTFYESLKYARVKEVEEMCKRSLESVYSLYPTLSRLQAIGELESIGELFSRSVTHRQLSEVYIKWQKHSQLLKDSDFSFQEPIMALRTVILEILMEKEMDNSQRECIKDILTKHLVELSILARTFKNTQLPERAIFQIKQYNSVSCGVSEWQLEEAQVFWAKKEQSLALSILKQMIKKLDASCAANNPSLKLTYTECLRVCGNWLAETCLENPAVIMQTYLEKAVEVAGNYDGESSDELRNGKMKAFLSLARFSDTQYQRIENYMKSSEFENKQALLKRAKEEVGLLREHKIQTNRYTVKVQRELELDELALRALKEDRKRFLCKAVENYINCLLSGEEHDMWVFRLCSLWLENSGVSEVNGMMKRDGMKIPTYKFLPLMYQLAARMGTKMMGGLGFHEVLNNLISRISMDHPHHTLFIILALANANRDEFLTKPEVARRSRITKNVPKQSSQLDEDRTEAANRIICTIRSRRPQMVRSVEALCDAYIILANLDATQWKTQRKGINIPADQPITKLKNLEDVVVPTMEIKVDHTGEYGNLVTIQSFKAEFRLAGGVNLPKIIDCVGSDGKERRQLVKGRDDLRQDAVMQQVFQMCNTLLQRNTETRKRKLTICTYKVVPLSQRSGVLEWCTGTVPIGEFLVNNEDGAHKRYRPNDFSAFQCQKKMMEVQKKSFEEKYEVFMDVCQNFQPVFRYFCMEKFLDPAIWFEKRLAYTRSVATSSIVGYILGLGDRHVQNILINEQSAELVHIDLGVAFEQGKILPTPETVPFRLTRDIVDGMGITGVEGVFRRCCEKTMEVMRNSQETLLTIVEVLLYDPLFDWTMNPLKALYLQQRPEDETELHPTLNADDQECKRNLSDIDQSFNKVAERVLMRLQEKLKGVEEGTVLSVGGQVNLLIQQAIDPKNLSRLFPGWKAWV
smiles,measurement,setting,value
CC(C)n1c(=O)n(C)c2cnc3cc(F)c(-c4ccc(OCCCN5CCCCC5)nc4)cc3c21 [AZD-1390],pIC50,[1],8.11
COc1cc2ncc3c(c2cc1-c1cn(C)nc1C)n(-c1c(F)cncc1OC)c(=O)n3C [LARTESERTIB],pIC50,[2],6.22
same,solubility,[3],93 µg/mL
O=c1cc(N2CCOCC2)cc(N2CCCCC[C@@H]2Cc2ccccc2)[nH]1,pIC50,[4],6.64
C[C@@H]1CN(CC(=O)Nc2ccc3c(c2)Cc2cccc(-c4cc(=O)cc(N5CCOCC5)o4)c2S3)C[C@H](C)O1,bioavailability,[5],37%
CN1CCN(CCC(=O)Nc2ccc3c(c2)Sc2cccc(-c4cc(=O)cc(N5CCOCC5)o4)c2S3)CC1,pIC50,[6],7.89
same,pIC50,[2],5.04
same,pIC50,[7],5.00
same,pIC50,[8],< 4.00
same,pIC50,[9],< 4.00
same,pIC50,[10],< 5.00
